# “And” between values parts separate entries of the source, which are not always exact repeats. Identical values can stand only once. “Also recorded” adds a separate entry of the source. Like-named read-outs stand apart in the source and are kept apart here. Marks after values point to notes of the source that are not given here.
# Columns and labels:
# [1] = system: NT embryos transferred to recipient cows; test: Pregnancy rates after transfer of NT embryos to recipient cows; type: in vivo, bovine
# Description: FIG. 1 is a diagram showing pregnancy rates throughout gestation following transfer of NT embryos derived from colcemid-treated versus untreated heifer cytoplasts. […] Six to seven days after NT, morulae and blastocysts were transferred to recipient cows. The solid bars show pregnancy rates for nuclear transfer embryos generated from heifer oocytes which were not treated with colcemid.
# The day 6-7 morulae and blastocysts were selected and transferred to recipient cows. A total of 191 recipient cows were used for embryo transfer. Forty cows received embryos from colcemid-treated oocytes and 151 cows received embryos from non-treated oocytes. Pregnancy rates were monitored throughout gestation.
# bovine NT blastocysts = test: Chromosomal analysis and cell number count of Day 7 NT blastocysts; type: cell-based; details: for No. cells blastocysts (mean ± SD): oocytes matured 16-17 hours, 0.2 μg/ml for 2-3 hours; for Cell number of blastocysts (mean ± SD): 0.2 μg/ml for 2-3 hr
# Procedure: Day 7 blastocysts were prepared and examined for their cytogenetic composition and the number of nuclei contained was verified. […] Chromosomes were examined at 1000× under a Zeiss microscope, and the chromosome composition was determined for each blastocyst.
# bovine oocytes [2] = details: colcemid vs control, 15-22 hr maturation
# Procedure: Oocytes were vortexed in 1 ml PB1+ containing 10 mg/ml hyaluronidase for 4 minutes to completely remove cumulus cells. Oocytes of good quality were selected for use. Oocytes were loaded with Ca^2+ indicator by incubation in 2 μM Fura-2 AM ester (Molecular Probes, Eugene, Oreg.) and 0.02% Pluronic F-127 (Molecular Probes) in Ca^2+- and Mg^2+-free phosphate buffered saline (Hyclone Laboratories) containing 0.32 mM sodium pyruvate, 5.55 mM glucose, 3 mg/ml BSA, and 100 μM EGTA at 39° C. in darkness for 45 min. After loading with indicator, oocytes were washed extensively with PB1+ (phosphate-buffered saline with Ca^2+ and Mg^2+ plus 5.55 mM glucose, 0.32 mM sodium pyruvate, 3 mg/ml BSA) and maintained in this solution at 39° C. until use.
# Fura-2 loaded oocytes were transferred to a 50-μl drop of PB1+ medium covered with mineral oil.
# bovine oocytes [3] = test: Membrane projections of bovine oocytes after colcemid treatment; type: cell-based; details: for oocytes exhibiting an obvious membrane projection: colcemid treatment for 2 to 4 hr
compound,measurement,setting,value
"CN[C@H]1CCc2cc(OC)c(OC)c(OC)c2-c2ccc(OC)c(=O)cc21 [colcemid, N-deacetyl-N-methylcolchicine]",Blastocyst (%),"bovine NT embryos; Table 3: oocytes matured 16-17 hr, 0.2 μg/ml for 2-3 h, 38 of 90 embryos cultured",38 (42.2)^a %
same,Morula (%),"bovine NT embryos; Table 3: oocytes matured 16-17 hr, 0.2 μg/ml for 2-3 h, 44 of 90 embryos cultured",44 (48.9)^a %
same,2-cell (%),"bovine NT embryos; Table 3: oocytes matured 16-17 hr, 0.2 μg/ml for 2-3 h, 76 of 90 embryos cultured",76 (84.4) %
same,cleavage of NT embryos,"bovine NT embryos; among treatment groups, vs controls, 0.2 μg/ml for 2-3 hr",no difference
same,rate of hatched blastocysts vs untreated groups,bovine NT embryos; colcemid groups vs untreated groups,much higher
same,rate of morula and blastocyst development vs untreated groups,bovine NT embryos; culture in SCR or BCR media,improved
same,Blastocyst (%),"bovine NT embryos; culture system BCR, oocytes matured 16-17 hours, 0.2 μg/ml for 2-3 hours, 20 of 110 cloned embryos, 5% CO2 in air",18.6% and 20 (18.2)^c %
same,Morula (%),"bovine NT embryos; culture system BCR, oocytes matured 16-17 hours, 0.2 μg/ml for 2-3 hours, 27 of 110 cloned embryos",27 (24.5)^b %
same,2-cell (%),"bovine NT embryos; culture system BCR, oocytes matured 16-17 hours, 0.2 μg/ml for 2-3 hours, 81 of 110 cloned embryos",81 (73.6) %
same,Hatched blastocyst (%),"bovine NT embryos; culture system BCR, oocytes matured 16-17 hours, 0.2 μg/ml for 2-3 hours, 110 cloned embryos",0%
same,Hatched blastocyst (%),"bovine NT embryos; culture system SCR and co-culture, oocytes matured 16-17 hours, 0.2 μg/ml for 2-3 hours, 19 of 86 cloned embryos",19 (22.0)^a %
same,Blastocyst (%),"bovine NT embryos; culture system SCR and co-culture, oocytes matured 16-17 hours, 0.2 μg/ml for 2-3 hours, 34 of 86 cloned embryos",39.5% and 34 (39.5)^a %
same,Morula (%),"bovine NT embryos; culture system SCR and co-culture, oocytes matured 16-17 hours, 0.2 μg/ml for 2-3 hours, 42 of 86 cloned embryos",42 (48.8)^a %
same,2-cell (%),"bovine NT embryos; culture system SCR and co-culture, oocytes matured 16-17 hours, 0.2 μg/ml for 2-3 hours, 74 of 86 cloned embryos",74 (86.0) %
same,Hatched blastocyst (%),"bovine NT embryos; culture system SCR, oocytes matured 16-17 hours, 0.2 μg/ml for 2-3 hours, 5 of 135 cloned embryos",5 (3.7)^b %
same,Blastocyst (%),"bovine NT embryos; culture system SCR, oocytes matured 16-17 hours, 0.2 μg/ml for 2-3 hours, 31 of 135 cloned embryos",31 (23.0)^b %
same,Morula (%),"bovine NT embryos; culture system SCR, oocytes matured 16-17 hours, 0.2 μg/ml for 2-3 hours, 41 of 135 cloned embryos",41 (30.3)^b %
same,2-cell (%),"bovine NT embryos; culture system SCR, oocytes matured 16-17 hours, 0.2 μg/ml for 2-3 hours, 96 of 135 cloned embryos",96 (71.1) %
same,Hatching Blastocyst (%),"bovine NT embryos; oocytes matured 14-15 hr, without PB1, 0.2 μg/ml for 2-3 hr, 26 of 100 embryos cultured",26 (26)^a %
same,Blastocyst (%),"bovine NT embryos; oocytes matured 14-15 hr, without PB1, 0.2 μg/ml for 2-3 hr, 40 of 100 embryos cultured",40% and 40 (40)^a %
same,Morula (%),"bovine NT embryos; oocytes matured 14-15 hr, without PB1, 0.2 μg/ml for 2-3 hr, 48 of 100 embryos cultured",48 (48) %
same,2-cell (%),"bovine NT embryos; oocytes matured 14-15 hr, without PB1, 0.2 μg/ml for 2-3 hr, 85 of 100 embryos cultured",85 (85) %
same,Hatching Blastocyst (%),"bovine NT embryos; oocytes matured 16-17 hr, with PB1, 0.2 μg/ml for 2-3 hr, 21 of 81 embryos cultured",21 (25.9)^a %
same,Blastocyst (%),"bovine NT embryos; oocytes matured 16-17 hr, with PB1, 0.2 μg/ml for 2-3 hr, 36 of 81 embryos cultured",44.4% and 36 (44.4)^a %
same,Morula (%),"bovine NT embryos; oocytes matured 16-17 hr, with PB1, 0.2 μg/ml for 2-3 hr, 45 of 81 embryos cultured",45 (55.6) %
same,2-cell (%),"bovine NT embryos; oocytes matured 16-17 hr, with PB1, 0.2 μg/ml for 2-3 hr, 69 of 81 embryos cultured",69 (85.2) %
same,Hatching Blastocyst (%),"bovine NT embryos; oocytes matured 16-17 hr, without PB1, 0.2 μg/ml for 2-3 hr, 22 of 90 embryos cultured",22 (24.2)^a %
same,Blastocyst (%),"bovine NT embryos; oocytes matured 16-17 hr, without PB1, 0.2 μg/ml for 2-3 hr, 38 of 90 embryos cultured",42.2% and 38 (42.2)^a %
same,Morula (%),"bovine NT embryos; oocytes matured 16-17 hr, without PB1, 0.2 μg/ml for 2-3 hr, 44 of 90 embryos cultured",44 (48.9) %
same,2-cell (%),"bovine NT embryos; oocytes matured 16-17 hr, without PB1, 0.2 μg/ml for 2-3 hr, 76 of 90 embryos cultured",76 (84.4) %
same,Blastocyst (%),"bovine NT embryos; oocytes matured 16-17 hr, 0.2 μg/ml for 5-6 h, 32 of 76 embryos cultured",32 (42.1)^a %
same,Morula (%),"bovine NT embryos; oocytes matured 16-17 hr, 0.2 μg/ml for 5-6 h, 37 of 76 embryos cultured",37 (48.7)^a %
same,2-cell (%),"bovine NT embryos; oocytes matured 16-17 hr, 0.2 μg/ml for 5-6 h, 69 of 76 embryos cultured",69 (90.8) %
same,Blastocyst (%),"bovine NT embryos; oocytes matured 16-17 hr, 0.4 μg/ml for 2-3 h, 32 of 73 embryos cultured",32 (43.8)^a %
same,Morula (%),"bovine NT embryos; oocytes matured 16-17 hr, 0.4 μg/ml for 2-3 h, 37 of 73 embryos cultured",37 (50.7)^a %
same,2-cell (%),"bovine NT embryos; oocytes matured 16-17 hr, 0.4 μg/ml for 2-3 h, 66 of 73 embryos cultured",66 (90.4) %
same,Blastocyst (%),"bovine NT embryos; oocytes matured 16-17 hr, 0.4 μg/ml for 5-6 h, 31 of 81 embryos cultured",31 (38.8)^a %
same,Morula (%),"bovine NT embryos; oocytes matured 16-17 hr, 0.4 μg/ml for 5-6 h, 39 of 81 embryos cultured",39 (48.1)^a %
same,2-cell (%),"bovine NT embryos; oocytes matured 16-17 hr, 0.4 μg/ml for 5-6 h, 66 of 81 embryos cultured",66 (81.5) %
same,Blastocyst (%),"bovine NT embryos; oocytes matured 19-20 hr, with PB1, 0.2 μg/ml for 2-3 hr, 30 of 107 embryos cultured",30 (28.0)^b %
same,Morula (%),"bovine NT embryos; oocytes matured 19-20 hr, with PB1, 0.2 μg/ml for 2-3 hr, 38 of 107 embryos cultured",38 (35.5) %
same,2-cell (%),"bovine NT embryos; oocytes matured 19-20 hr, with PB1, 0.2 μg/ml for 2-3 hr, 88 of 107 embryos cultured",88 (82.2) %
same,Hatching Blastocyst (%),"bovine NT embryos; oocytes matured 19-20 hr, with PB1, 0.2 μg/ml for 2-3 hr, printed count 6, 107 embryos cultured",6 (15.0)^b %
same,Hatching Blastocyst (%),"bovine NT embryos; oocytes matured 19-20 hr, without PB1, 0.2 μg/ml for 2-3 hr, 14 of 66 embryos cultured",14 (21.2)^a %
same,Blastocyst (%),"bovine NT embryos; oocytes matured 19-20 hr, without PB1, 0.2 μg/ml for 2-3 hr, 25 of 66 embryos cultured",38% and 25 (37.9)^a %
same,Morula (%),"bovine NT embryos; oocytes matured 19-20 hr, without PB1, 0.2 μg/ml for 2-3 hr, 32 of 66 embryos cultured",32 (48.5) %
same,2-cell (%),"bovine NT embryos; oocytes matured 19-20 hr, without PB1, 0.2 μg/ml for 2-3 hr, 56 of 66 embryos cultured",56 (84.8) %
same,average blastocyst development rate,"bovine NT embryos; under 5% CO2 in air, especially oocytes matured for 14 to 17 hr and treated with colcemid",over 40%
same,term rate,"[1]; MI heifer oocytes matured 16-17 hr, 0.2 or 0.4 μg/ml colcemid 2-3 hr, 40 recipient cows, non-treated group 3.3%",12.5%
same,pregnancy rates vs non-treated group,"[1]; at 60, 90, 180 days, P<0.05",Higher
same,Cell numbers of blastocysts vs control groups,bovine NT blastocysts; colcemid-treated groups vs control groups,numerically higher; also recorded: numerical higher
same,No. cells blastocysts (mean ± SD),bovine NT blastocysts; culture system BCR,50.3 ± 7.6^c
same,No. cells blastocysts (mean ± SD),bovine NT blastocysts; culture system SCR and co-culture,107.8 ± 21.6^a
same,No. cells blastocysts (mean ± SD),bovine NT blastocysts; culture system SCR,70.5 ± 7.8^b
same,cell number of blastocysts vs untreated,bovine NT blastocysts; embryos cultured in SCR and BCR systems,increased
same,Cell number of blastocysts (mean ± SD),"bovine NT blastocysts; oocytes matured 14-15 hr, without PB1",113 ± 10
same,Cell number of blastocysts (mean ± SD),"bovine NT blastocysts; oocytes matured 16-17 hr, with PB1",103 ± 20
same,Cell number of blastocysts (mean ± SD),"bovine NT blastocysts; oocytes matured 16-17 hr, without PB1",118 ± 17
same,Cell number of blastocysts (mean ± SD),"bovine NT blastocysts; oocytes matured 19-20 hr, with PB1",91 ± 9
same,Cell number of blastocysts (mean ± SD),"bovine NT blastocysts; oocytes matured 19-20 hr, without PB1",107 ± 11
same,"intracellular calcium transients, trend between treatments",bovine oocytes [2],No trend
same,No. oocytes with blebs or Pb1 + bleb (%),"bovine oocytes [3]; oocytes with PB1 matured 16-17 hr, 0.2 μg/ml for 2 h, 26 of 36 oocytes",26 (72.2) %
same,No. oocytes with blebs or Pb1 + bleb (%),"bovine oocytes [3]; oocytes with PB1 matured 16-17 hr, 0.2 μg/ml for 4 h, 31 of 39 oocytes",31 (79.5) %
same,No. oocytes with blebs or Pb1 + bleb (%),"bovine oocytes [3]; oocytes with PB1 matured 16-17 hr, 0.4 μg/ml for 2 h, 29 of 38 oocytes",29 (76.3) %
same,No. oocytes with blebs or Pb1 + bleb (%),"bovine oocytes [3]; oocytes with PB1 matured 16-17 hr, 0.4 μg/ml for 4 h, 28 of 38 oocytes",28 (73.6) %
same,oocytes exhibiting an obvious membrane projection,bovine oocytes [3]; oocytes with PB1 matured 16-17 hr,approximately 80%
same,No. oocytes with blebs or Pb1 + bleb (%),"bovine oocytes [3]; oocytes without PB1 matured 16-17 hr, 0.1 μg/ml for 1 h, 32 of 46 oocytes",32 (69.6) %
same,No. oocytes with blebs or Pb1 + bleb (%),"bovine oocytes [3]; oocytes without PB1 matured 16-17 hr, 0.1 μg/ml for 2 h, 39 of 48 oocytes",39 (81.2) %
same,No. oocytes with blebs or Pb1 + bleb (%),"bovine oocytes [3]; oocytes without PB1 matured 16-17 hr, 0.1 μg/ml for 4 h, 43 of 46 oocytes",43 (93.4) %
same,No. oocytes with blebs or Pb1 + bleb (%),"bovine oocytes [3]; oocytes without PB1 matured 16-17 hr, 0.2 μg/ml for 2 h, 33 of 42 oocytes",33 (78.6) %
same,No. oocytes with blebs or Pb1 + bleb (%),"bovine oocytes [3]; oocytes without PB1 matured 16-17 hr, 0.2 μg/ml for 4 h, 38 of 42 oocytes",38 (90.5) %
same,No. oocytes with blebs or Pb1 + bleb (%),"bovine oocytes [3]; oocytes without PB1 matured 16-17 hr, 0.4 μg/ml for 2 h, 35 of 43 oocytes",35 (81.3) %
same,No. oocytes with blebs or Pb1 + bleb (%),"bovine oocytes [3]; oocytes without PB1 matured 16-17 hr, 0.4 μg/ml for 4 h, 34 of 41 oocytes",34 (82.9) %
same,oocytes exhibiting an obvious membrane projection,bovine oocytes [3]; oocytes without PB1 matured 16-17 hr,80-93%

# From patent publication US20080222745A1, “Colcemid-Treatment of Oocytes to enhance Nuclear Transfer Cloning” (Utah State University, priority 2007, published 2008)
